Test results reported in publication PMC10497828, “A novel peptide derived from vascular endothelial growth factor prevents amyloid beta aggregation and toxicity” (Aging Cell, 2023).
Ends that are not written are not given here.

Legend:
[1] = tested on: synapses / LTP impaired by Aβo; conditions: ref Martin et al., 2021; cited from earlier work
[2] = tested on: SC-CA1 synapses in APP/PS1 hippocampal slices; assay: LTP (TBS) in APP/PS1 hippocampal slices; type: cell-based, APP/PS1-21 mouse
Description: (§1) Data were expressed as mean ± SEM in ThT, Western blotting, synaptic targeting experiments and electrophysiological recordings (Table S2). Normality and variance homoscedasticity were assessed using descriptive analysis and appropriate tests. Sample size (n) was determined based on previous studies from the literature and pilot experiments; n refers to the number of ELISA, ThT or Western Blotting experiments, to coverslips or culture wells for hippocampal neuron cultures, and to mice per condition or per genotype for electrophysiological experiments. […] For the analysis of Aβ‐BP interaction, K D was determined by fitting the data to a two‐parameter saturation curve. […] For quantitative assessment of Aβ aggregation, Aβ expression level and the percentage of synapses colocalized with Aβ, data were compared for statistical significance between groups using a Kruskal–Wallis and a Dunn's post hoc test with Holm correction (R software) (Table S3). For electrophysiological data, statistical analysis between treatments and/or genotypes were carried out using a Kruskal–Wallis followed by a Dunn's post hoc test to compare differences in fEPSP slopes (Table S3).

[3] = tested on: SC-CA1 synapses in WT hippocampal slices; assay: LTP (TBS) in WT hippocampal slices; type: cell-based, wild-type mouse
Description: as §1

[4] = tested on: Aβ42 fibrils; assay: Transmission electron microscopy of Aβ aggregates; type: biochemical
Description: Synthetic Aβ40, Aβ42, and their biotinylated forms were obtained as lyophilized samples from Bachem (Aβ40, b‐Aβ40, Aβ42 and b‐Aβ42). Briefly, peptides were solubilized in 1,1,1,3,3,3‐hexafluoro‐2‐propanol to prevent oligomerization, then evaporated overnight under a chemical fume hood, and stored as a dried peptide film at −80°C until use, as previously described (Stine et al., [2003]). Aβ monomers (Aβm) were prepared extemporaneously by first dissolving the peptide film in 2 mM dimethyl sulfoxide (DMSO) and vortexing for 1 min. Peptides were further diluted to 100 μM in ice‐cold PBS. Diluted peptides were subsequently sonicated for 20 min at 4°C, centrifuged at 10,000g for 3 min, then the supernatant was collected and concentration of Aβm measured using a micro BCA protein assay kit, prior to being aliquoted and stored at −20°C until use. […] Aβ preparations were used either directly as monomers (for Aβ40 Elisa assays and ThT experiments) or were subjected to different oligomerization states, enriched in high molecular weight Aβ42 oligomers (HMW Aβo) or in low molecular weight Aβ42 oligomers (LMW Aβo). For Aβ preparations enriched in Aβ fibrils, monomeric Aβ42 peptides (Aβm) were incubated at a concentration of either 30 μM or 15 μM during 24 h at 37°C. For HMW Aβo, Aβm was incubated at 15 μM for 2 h at 37°C. […]

[5] = tested on: hippocampal neuron cultures (Aβo binding to PSD95/Bassoon synapses); assay: Synaptic targeting in hippocampal neurons by Aβ oligomerized with peptide; type: cell-based, C57Bl/6JRj mouse; conditions: Aβ oligomerized 2 h in presence of peptide; 0.5 μM, 30 min
Description: Primary hippocampal neuron cultures were prepared from E17‐18 C57Bl/6JRj mice. Briefly, hippocampi were removed and collected in Hank's buffered salt solution (HBSS), digested in HBSS supplemented with trypsin (0.25% v/v) for 10 min at 37°C and then rinsed in HBSS and BSA 0.2%. Next, hippocampi were triturated in Neurobasal medium without phenol red, supplemented with L‐glutamine (2 mM), 2% B27, 1% penicillin/streptomycin (P/S) (10,000 U/mL). Hippocampal neurons were then plated onto poly‐L‐lysine coated coverslips (0.5 mg/mL) at a low density (15 × 10^3 cells/cm^2) for synaptic targeting experiments. Neurons were cultured in supplemented Neurobasal medium at 37°C under 5% CO2, one‐half of the medium being changed once a week. […]
Treated hippocampal neuron cultures were fixed for 4 min in 4% paraformaldehyde (PFA) in 0.1 M phosphate buffer at RT, prior to immunostaining. After a blocking step in non‐permeabilizing condition (PBS, 1% BSA) surface‐bound biotinylated Aβ was detected with fluorescently tagged streptavidin incubated for 3 h at RT. […]
Subsequent analyses of hippocampal synapse staining were performed by a blinded investigator with Icy software. […] Biotinylated Aβ clusters were quantified in each ROI in collapsed Z‐stacks. […]

[6] = tested on: Aβ42 monomers (Aβm), fibrillation; assay: Thioflavin T aggregation assay; type: biochemical; conditions: increasing concentrations 0.5 to 15 μM, 15 μM Aβm, 24 h
Description: (§2) Synthetic Aβ40, Aβ42, and their biotinylated forms were obtained as lyophilized samples from Bachem (Aβ40, b‐Aβ40, Aβ42 and b‐Aβ42). Briefly, peptides were solubilized in 1,1,1,3,3,3‐hexafluoro‐2‐propanol to prevent oligomerization, then evaporated overnight under a chemical fume hood, and stored as a dried peptide film at −80°C until use, as previously described (Stine et al., [2003]). Aβ monomers (Aβm) were prepared extemporaneously by first dissolving the peptide film in 2 mM dimethyl sulfoxide (DMSO) and vortexing for 1 min. Peptides were further diluted to 100 μM in ice‐cold PBS. Diluted peptides were subsequently sonicated for 20 min at 4°C, centrifuged at 10,000g for 3 min, then the supernatant was collected and concentration of Aβm measured using a micro BCA protein assay kit, prior to being aliquoted and stored at −20°C until use. […]
Thioflavin‐T (ThT) assays were performed in black polystyrene 384‐well plates using a Tecan microplate reader with a set of excitation/emission wavelengths of 450/490 nm. […] The plate was sealed with a transparent plastic film and incubated at 37°C prior to fluorescence measurement. ThT fluorescence intensity was monitored every 5 min over 24 h at 37°C without agitation. Three replicates per condition were measured.
Data were expressed as mean ± SEM in ThT, Western blotting, synaptic targeting experiments and electrophysiological recordings (Table S2). […]

[7] = target: T1, Aβo-VEGF interaction (recombinant human VEGF165) (Homo sapiens, UniProt P05067); assay: Competitive ELISA, Aβo binding to immobilized VEGF165; type: biochemical
T1 construct: Biotinyl-Amyloid b pr otein ( 1-42); purchased R&D Systems (VEGF165); Bachem (biotinyl-Aβ 1-42) 293-VE (VEGF165); H-5642 (biotinyl-Aβ 1-42)
T1 sequence (P05067 672-713 limits assumed): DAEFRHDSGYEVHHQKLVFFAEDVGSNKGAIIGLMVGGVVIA
Description: Data were expressed as mean ± SEM in ThT, Western blotting, synaptic targeting experiments and electrophysiological recordings (Table S2). Normality and variance homoscedasticity were assessed using descriptive analysis and appropriate tests. Sample size (n) was determined based on previous studies from the literature and pilot experiments; n refers to the number of ELISA, ThT or Western Blotting experiments, to coverslips or culture wells for hippocampal neuron cultures, and to mice per condition or per genotype for electrophysiological experiments. […] For the analysis of Aβ‐BP interaction, K D was determined by fitting the data to a two‐parameter saturation curve. […] For quantitative assessment of Aβ aggregation, Aβ expression level and the percentage of synapses colocalized with Aβ, data were compared for statistical significance between groups using a Kruskal–Wallis and a Dunn's post hoc test with Holm correction (R software) (Table S3). For electrophysiological data, statistical analysis between treatments and/or genotypes were carried out using a Kruskal–Wallis followed by a Dunn's post hoc test to compare differences in fEPSP slopes (Table S3). […]
Competi tive ELISA experi ments were performed to anal yse the ability of the BP to impede bi oti nyl ated LMW Aβo bi ndi ng to VEGF. […] After adding the stop solution, absorbance was measured using a TECAN microplate reader.

[8] = target: T2, Aβ42 oligomers (LMW Aβo) (Homo sapiens, UniProt P05067); assay: Indirect ELISA, binding of immobilized BP/CP to biotinylated LMW Aβ42 oligomers
T2 construct: Biotinyl-Amyloid b pr otein ( 1-42); purchased Bachem H-5642; host or cells: chemical synthesis
T2 sequence (P05067 672-713 limits assumed): as above
Description: as §2
(§3) The binding of CP or BP to synthetic biotinylated LMW Aβo (oligomerized at 4°C for 24 h) or Aβ40 monomers (Aβm) was determined by indirect ELISA in which CP or BP were used as the capture antigens and the biotin tag of the biotinylated Aβ peptides for the detection. […] Absorbance was successively measured at 450 and 540 nm with a TECAN microplate reader and optical density values at 540 nm were subtracted from the ones at 450 nm to correct for optical imperfections of the plate. […]

[9] = tested on: SC-CA1 synapses in WT hippocampal slices; assay: Paired-pulse facilitation in WT hippocampal slices; type: cell-based, wild-type mouse; conditions: 50 ms, after TBS
Description: (§4) Local field potential recordings (LFP) were performed on acute coronal hippocampal slices from 8‐month‐old wild type and transgenic heterozygous male APP/PS1‐21 mice to measure baseline synaptic response and long‐term potentiation (LTP) of Schaffer collaterals to CA1 (SC‐CA1) pyramidal cell synapses. Hippocampal slices (400 μm thick) were cut using a vibratome (Leica VT1200S) and incubated at room temperature in artificial cerebrospinal fluid (ACSF) containing (in mM): 124 NaCl, 10 glucose, 1.25 NaH2PO4, 2.5 KCl, 26 NaHCO3, 1.3 MgCl2, and 2.5 CaCl2, bubbled with 95% O2 and 5% CO2, pH 7.4 for 1 h prior to recording. Field excitatory postsynaptic potentials (fEPSPs) were recorded extracellularly in stratum radiatum of CA1 region of the dorsal hippocampus in presence of gamma‐aminobutyric acid (GABA)‐A receptor antagonist picrotoxin (100 μM). Electrical stimulation was realized with a bipolar tungsten electrode placed in CA1 stratum radiatum and fEPSPs were measured using borosilicate glass microelectrodes (~1–3 MΩ) filled with ACSF. […] LFP were sampled at 10 kHz and fEPSPs initial slope was computed to quantify synaptic responses. […] For quantification, the slope of the synaptic response to the second stimulation was divided by that of the first response.

[10] = target: T3, Aβ40 monomers (Aβm) (Homo sapiens, UniProt P05067); assay: Indirect ELISA, binding of immobilized BP/CP to biotinylated Aβ40 monomers; conditions: Aβm 0 to 10 μg/mL
T3 construct: Biotinyl-Amyloid b pr otein ( 1-40); purchased Bachem H-5914; host or cells: chemical synthesis
T3 sequence (P05067 672-711 limits assumed): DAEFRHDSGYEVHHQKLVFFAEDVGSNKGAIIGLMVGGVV
Description: as §2, §3

[11] = tested on: SC-CA1 synapses in APP/PS1 hippocampal slices; assay: Paired-pulse facilitation in APP/PS1 hippocampal slices; type: cell-based, APP/PS1-21 mouse; conditions: 50 ms, after TBS
Description: as §4

[12] = tested on: Aβ42 oligomerization (monomers, LMW and HMW Aβo); assay: Western blot (6E10) of soluble Aβ species formed in presence of peptide; type: biochemical; conditions: equimolar peptide, 15 μM Aβm, 37°C
Description: as §2
After a 45 min blocking step in Tris‐buffered saline, 0.1% Tween, pH 7.6, 5% milk, membranes were immunoblotted overnight at 4°C with dedicated antibodies (Table S1) diluted in Tris‐buffered saline, 0.1% Tween, pH 7.6, with 2% milk. […] Proteins were visualized with an ECL detection system and band intensities quantified using a densitometric analysis with ImageJ software.

[13] = tested on: VEGFR2 phosphorylation (Tyr1175) in HUVEC; assay: VEGFR2 phosphorylation Western blot in HUVEC; type: cell-based, human; conditions: 0.5 μM, 5 min
Description: Human um bi l i cal v ei n endothel i al C ell s (HUVEC ) were obtai ned from Pr omocel l and cul tured
in 6 cm Petri di s hes pre-coated wi th col l ag en I at 5 µ g /cm2 in 20 mM glacial acetic acid. HUVEC
were cultured at 7000 cells/cm2 in endothelial cell growth medium MV2 heparin free
(Promocel l ) s uppl emented wi th 1% P/S unti l reac hi ng 80% c onfl uency , an d were us ed for u p
0.5 µ M. After treatments, HUVEC were washed a nd i ncubated i n 6 00 mL of l ysi s buf fer (Tri s HCL 25 mM, EDTA 5 mM, DOC 0.5 mM, NP40 1%, SDS 0.1%, NaCl 150 mM), suppl emented with cOmplete protease inhibitor cocktail 2%, Benzonase 0.02%, Orthovanadate 2%, and phos phat as e i nhi bi t ors 2% for 10 mi n at 4°C .
For immunoblotting of HUVEC cel l l y s ates , 20 µg of proteins were separated on 3-8% g radi ent SDS-PAGE gels at 120V, with cathode and ano de contai ni ng XT Try ci ne buffe r. G el s w ere transferred on 0.2 µm nitrocellulose membranes at 120V for 2h in 5% methanol, Tris-Glycine buffer and immunoblotted.
were used in combination with approp riate secondary antibodies (Table S1)

[14] = 0.5 μM, at least 40 min before TBS

VEGF
Protection of synapses / LTP from Aβo [1]: ability to preserve synapses from dysfunction and LTP deficits caused by Aβo

NDYKDDDDKGAAA [CP]
Effect on LTP in APP/PS1 slices [2, 14]: failed to restore LTP
LTP amplitude, fEPSP slope 55–60 min after TBS ([2]; peptide 0.5 μM at least 40 min before TBS, APP/PS1 slices, 8-month-old male, mean ± SEM, n = 7 mice): 119 ± 9.1%
Effect on LTP in WT slices [3, 14]: neither CP nor the BP impacted LTP responses
LTP amplitude, fEPSP slope 55–60 min after TBS ([3]; peptide 0.5 μM at least 40 min before TBS, WT slices, 8-month-old male, mean ± SEM, n = 6 mice): 191.4 ± 18.3%
Morphology of Aβ aggregates by TEM ([4]; Aβ 30 μM + equimolar peptide, 24 h at 37°C, n = 4): typical fibrillary structures
Structures formed by peptide alone, TEM ([4]; peptide alone, no Aβ): do not show any detectable 3D structures
Aβo binding to neuron surface and synapses [5]: strong binding to hippocampal neuron surface
Effect on ThT fluorescence [6]: had no impact on ThT fluorescence
Effect on Aβo-VEGF interaction ([7]; peptide preincubated with Aβo 2.1 μM): did not affect Aβo binding
Binding of Aβo to immobilized peptide ([8]; ELISA, Aβo 0 to 10 μg/mL): failed to bind to the CP even at the highest concentration
Effect on paired-pulse ratio [9]: no differences were detected
Binding of Aβm to immobilized peptide [10]: failed to bind to the CP even at the highest concentration
Effect on paired-pulse ratio [11]: no differences were detected
Effect on proportion of Aβ species [12]: did not change the proportion of Aβo species
Effect on basal VEGFR2 phosphorylation [13]: did not affect basal VEGFR2 phosphorylation level

KRKKSRYKSWSVYVG [BP]
EC50 ([7]; Aβo 2.1 μM preincubated with BP 1 h RT, three-parameter sigmoidal fit, n = 5-6): 0.35 µM
Kd [8]: 0.012 µM
